Consider 56 compounds from PMC6099728, “Investigation of Hydro-Lipophilic Properties of N-Alkoxyphenylhydroxynaphthalenecarboxamides” (Molecules : A Journal of Synthetic Chemistry and Natural …, 2018).

The nature of the data set: Lipophilicity determination by RP-HPLC (capacity factor k / logk). It counts as physicochemical. Conditions: for logk: isocratic MeOH 72%/H2O 28%, C18 column, 40 °C; for πB (distributive parameter π calculated from logk) / πC (distributive parameter π calculated from logk) / πA (distributive parameter π calculated from logk): π = logkS − logkU; for πB (distributive parameter π calculated from logk): unsubstituted 1b as reference; for πC (distributive parameter π calculated from logk): unsubstituted 1c as reference; for πA (distributive parameter π calculated from logk): unsubstituted 1a as reference. An excerpt:
A HPLC separation module Waters Alliance 2695 XE equipped with a Waters Dual Absorbance Detector 2486 (Waters Corp., Milford, MA, USA) was used. A chromatographic column Symmetry® C18 5 µm, 4.6 × 250 mm, Part No. W21751W016 (Waters Corp.) was used. The HPLC separation process was monitored by Empower® 3 Chromatography Manager Software (Waters Corp.). Isocratic elution by a mixture of MeOH p.a. (72%) and H2O-HPLC Mili-Q grade (28%) as a mobile phase was used. The total flow of the column was 1.0 mL/min, the injection was 20 μL, the column temperature was 40 °C, and the sample temperature was 10 °C. A detection wavelength of 210 nm was chosen. The KI methanolic solution was used for the determination of dead time (tD). Retention times (tR) were measured in minutes. Capacity factors k were calculated using the Empower® 3 Chromatography Manager Software according to the formula k = (tR − tD)/tD, where tR is the retention time of the solute, while tD is the dead time obtained using an unretained analyte. Each experiment was repeated three times. Logk, which was calculated from the capacity factor k, is used as the lipophilicity index converted to the logP scale.

With `CCOc1ccc(NC(=O)c2ccc3ccccc3c2O)cc1` [7b], for the setting “series B”, the logk was 0.7700 and the “πB (distributive parameter π calculated from logk)” value was 0.15.

Turning to `O=C(Nc1ccccc1)c1ccc2ccccc2c1O` [1b], where the note is “series B”, the logk was determined as 0.6755 and the “πB (distributive parameter π calculated from logk)” value is given as 0.

`CCCCOc1ccc(NC(=O)c2c(O)ccc3ccccc23)cc1` [13c]: for the setting “series C”, the logk is listed as 0.4604 and the “πC (distributive parameter π calculated from logk)” value is on record as 1.05.

For the compound `CCOc1ccccc1NC(=O)c1ccc2ccccc2c1O` [5b], under “series B”, the logk is listed as 1.0940 and the “πB (distributive parameter π calculated from logk)” value is given as 0.40.

Take `CCCOc1cccc(NC(=O)c2ccc3ccccc3c2O)c1` [9b]: where the note is “series B”, the logk was determined as 1.0215 and the “πB (distributive parameter π calculated from logk)” value is listed as 0.69.

For `CCOc1ccc(NC(=O)c2cc3ccccc3cc2O)cc1` [7a], where the note is “series A”, the logk came to 0.4916 and the “πA (distributive parameter π calculated from logk)” value is recorded as 0.15.

Regarding `CC(C)Oc1ccccc1NC(=O)c1c(O)ccc2ccccc12` [14c], where the note is “series C”, the logk was 0.6145 and the “πC (distributive parameter π calculated from logk)” value is reported as 0.66.

As for `CC(C)Oc1ccc(NC(=O)c2cc3ccccc3cc2O)cc1` [16a], where the note is “series A”, the logk worked out at 0.6017 and the “πA (distributive parameter π calculated from logk)” value is given as 0.59.

As to `CCOc1cccc(NC(=O)c2ccc3ccccc3c2O)c1` [6b], where the note is “series B”, the logk amounted to 0.8353 and the “πB (distributive parameter π calculated from logk)” value is reported as 0.36.

Regarding `CCCOc1ccc(NC(=O)c2cc3ccccc3cc2O)cc1` [10a], under “series A”, the logk came out at 0.6963 and the “πA (distributive parameter π calculated from logk)” value is 0.75.

Consider `O=C(Nc1ccccc1)c1c(O)ccc2ccccc12` [1c], for which, where the note is “series C”, the logk is −0.0581 and the “πC (distributive parameter π calculated from logk)” value is given as 0.

Turning to `CCCCOc1ccccc1NC(=O)c1cc2ccccc2cc1O` [11a], under “series A”, the logk is listed as 0.9136 and the “πA (distributive parameter π calculated from logk)” value is reported as 1.08.

`CCC(C)Oc1ccccc1NC(=O)c1ccc2ccccc2c1O` (stereo not shown) [17b]: where the note is “series B”, the logk was found to be 1.4424 and the “πB (distributive parameter π calculated from logk)” value was 1.00.

With `COc1ccc(NC(=O)c2ccc3ccccc3c2O)cc1` [4b], under “series B”, the logk was 0.6239 and the “πB (distributive parameter π calculated from logk)” value is −0.15.

As to `CC(C)Oc1cccc(NC(=O)c2ccc3ccccc3c2O)c1` [15b], where the note is “series B”, the logk turned out to be 0.9355 and the “πB (distributive parameter π calculated from logk)” value is 0.61.

As for `CCOc1ccccc1NC(=O)c1cc2ccccc2cc1O` [5a], where the note is “series A”, the logk is listed as 0.5570 and the “πA (distributive parameter π calculated from logk)” value was 0.40.

As to `CCCOc1ccccc1NC(=O)c1cc2ccccc2cc1O` [8a], under “series A”, the logk came out at 0.7221 and the “πA (distributive parameter π calculated from logk)” value is reported as 0.74.

As to `CCC(C)Oc1cccc(NC(=O)c2c(O)ccc3ccccc23)c1` (stereo not shown) [18c], for the setting “series C”, the logk was 0.4129 and the “πC (distributive parameter π calculated from logk)” value was 0.91.

As to `CCCCOc1cccc(NC(=O)c2c(O)ccc3ccccc23)c1` [12c], for the setting “series C”, the logk is given as 0.5161 and the “πC (distributive parameter π calculated from logk)” value is recorded as 1.00.

Take `COc1cccc(NC(=O)c2ccc3ccccc3c2O)c1` [3b]: for the setting “series B”, the logk was found to be 0.6828 and the “πB (distributive parameter π calculated from logk)” value is recorded as 0.04.

Consider `CCCCOc1ccc(NC(=O)c2cc3ccccc3cc2O)cc1` [13a], for which, under “series A”, the logk is recorded as 0.8961 and the “πA (distributive parameter π calculated from logk)” value is listed as 1.08.

In the case of `CCCOc1ccc(NC(=O)c2c(O)ccc3ccccc23)cc1` [10c], where the note is “series C”, the logk amounted to 0.2622 and the “πC (distributive parameter π calculated from logk)” value is on record as 0.72.

As to `CC(C)Oc1ccc(NC(=O)c2c(O)ccc3ccccc23)cc1` [16c], for the setting “series C”, the logk is recorded as 0.1619 and the “πC (distributive parameter π calculated from logk)” value is 0.55.

For `O=C(Nc1ccccc1)c1cc2ccccc2cc1O` [1a], where the note is “series A”, the logk is 0.3927 and the “πA (distributive parameter π calculated from logk)” value was 0.

`CCCOc1ccc(NC(=O)c2ccc3ccccc3c2O)cc1` [10b]: for the setting “series B”, the logk is reported as 0.9588 and the “πB (distributive parameter π calculated from logk)” value is reported as 0.75.

In the case of `CCCCOc1cccc(NC(=O)c2cc3ccccc3cc2O)c1` [12a], for the setting “series A”, the logk is 0.9711 and the “πA (distributive parameter π calculated from logk)” value was 1.02.

Regarding `CCCCOc1cccc(NC(=O)c2ccc3ccccc3c2O)c1` [12b], where the note is “series B”, the logk was determined as 1.2088 and the “πB (distributive parameter π calculated from logk)” value is given as 1.02.

Take `CC(C)Oc1ccccc1NC(=O)c1ccc2ccccc2c1O` [14b]: for the setting “series B”, the logk was found to be 1.2556 and the “πB (distributive parameter π calculated from logk)” value is 0.66.

Consider `COc1cccc(NC(=O)c2cc3ccccc3cc2O)c1` [3a], for which, where the note is “series A”, the logk is 0.4055 and the “πA (distributive parameter π calculated from logk)” value was 0.04.

On to `CCOc1ccc(NC(=O)c2c(O)ccc3ccccc23)cc1` [7c], for which, for the setting “series C”, the logk is 0.0542 and the “πC (distributive parameter π calculated from logk)” value was 0.27.

For the compound `CCCCOc1ccccc1NC(=O)c1ccc2ccccc2c1O` [11b], for the setting “series B”, the logk is reported as 1.5122 and the “πB (distributive parameter π calculated from logk)” value is 1.08.

Regarding `CCC(C)Oc1ccc(NC(=O)c2c(O)ccc3ccccc23)cc1` (stereo not shown) [19c], where the note is “series C”, the logk amounted to 0.3621 and the “πC (distributive parameter π calculated from logk)” value is 0.91.

As for `CCCCOc1ccccc1NC(=O)c1c(O)ccc2ccccc12` [11c], under “series C”, the logk is 0.8578 and the “πC (distributive parameter π calculated from logk)” value was 1.04.

For the compound `CCOc1cccc(NC(=O)c2c(O)ccc3ccccc23)c1` [6c], where the note is “series C”, the logk was 0.1175 and the “πC (distributive parameter π calculated from logk)” value is listed as 0.34.

`CCC(C)Oc1cccc(NC(=O)c2ccc3ccccc3c2O)c1` (stereo not shown) [18b]: for the setting “series B”, the logk is 1.1291 and the “πB (distributive parameter π calculated from logk)” value was 0.95.

Turning to `CCC(C)Oc1ccccc1NC(=O)c1c(O)ccc2ccccc12` (stereo not shown) [17c], where the note is “series C”, the logk came to 0.7927 and the “πC (distributive parameter π calculated from logk)” value is 0.98.

Consider `COc1ccccc1NC(=O)c1c(O)ccc2ccccc12` [2c], for which, for the setting “series C”, the logk was 0.2518 and the “πC (distributive parameter π calculated from logk)” value is recorded as 0.05.

With `CCOc1cccc(NC(=O)c2cc3ccccc3cc2O)c1` [6a], for the setting “series A”, the logk was determined as 0.5682 and the “πA (distributive parameter π calculated from logk)” value was 0.36.

In the case of `CCOc1ccccc1NC(=O)c1c(O)ccc2ccccc12` [5c], where the note is “series C”, the logk is recorded as 0.4759 and the “πC (distributive parameter π calculated from logk)” value is 0.39.

On to `COc1ccc(NC(=O)c2cc3ccccc3cc2O)cc1` [4a], for which, under “series A”, the logk is reported as 0.3374 and the “πA (distributive parameter π calculated from logk)” value is on record as −0.15.

On to `CC(C)Oc1ccc(NC(=O)c2ccc3ccccc3c2O)cc1` [16b], for which, where the note is “series B”, the logk is 0.8648 and the “πB (distributive parameter π calculated from logk)” value is listed as 0.59.

As to `CC(C)Oc1cccc(NC(=O)c2c(O)ccc3ccccc23)c1` [15c], where the note is “series C”, the logk was 0.2214 and the “πC (distributive parameter π calculated from logk)” value was 0.57.

On to `CCC(C)Oc1ccc(NC(=O)c2ccc3ccccc3c2O)cc1` (stereo not shown) [19b], for which, under “series B”, the logk was 1.0518 and the “πB (distributive parameter π calculated from logk)” value is listed as 0.94.

For the compound `CCCOc1cccc(NC(=O)c2cc3ccccc3cc2O)c1` [9a], for the setting “series A”, the logk stood at 0.7672 and the “πA (distributive parameter π calculated from logk)” value is on record as 0.69.

Turning to `CCC(C)Oc1cccc(NC(=O)c2cc3ccccc3cc2O)c1` (stereo not shown) [18a], for the setting “series A”, the logk was 0.8670 and the “πA (distributive parameter π calculated from logk)” value is on record as 0.95.

For the compound `CC(C)Oc1ccccc1NC(=O)c1cc2ccccc2cc1O` [14a], under “series A”, the logk stood at 0.6360 and the “πA (distributive parameter π calculated from logk)” value is 0.66.

Regarding `CCC(C)Oc1ccccc1NC(=O)c1cc2ccccc2cc1O` (stereo not shown) [17a], under “series A”, the logk is given as 0.7956 and the “πA (distributive parameter π calculated from logk)” value was 1.00.

As for `COc1ccccc1NC(=O)c1ccc2ccccc2c1O` [2b], for the setting “series B”, the logk is 0.8593 and the “πB (distributive parameter π calculated from logk)” value was 0.09.

With `COc1cccc(NC(=O)c2c(O)ccc3ccccc23)c1` [3c], for the setting “series C”, the logk came to 0.1106 and the “πC (distributive parameter π calculated from logk)” value is 0.02.

Regarding `COc1ccccc1NC(=O)c1cc2ccccc2cc1O` [2a], for the setting “series A”, the logk is 0.3982 and the “πA (distributive parameter π calculated from logk)” value is recorded as 0.09.

Regarding `CC(C)Oc1cccc(NC(=O)c2cc3ccccc3cc2O)c1` [15a], under “series A”, the logk came to 0.6723 and the “πA (distributive parameter π calculated from logk)” value is 0.61.

With `COc1ccc(NC(=O)c2c(O)ccc3ccccc23)cc1` [4c], for the setting “series C”, the logk is on record as −0.1149 and the “πC (distributive parameter π calculated from logk)” value is −0.19.

With `CCCOc1ccccc1NC(=O)c1c(O)ccc2ccccc12` [8c], for the setting “series C”, the logk is on record as 0.6639 and the “πC (distributive parameter π calculated from logk)” value was 0.73.

Take `CCCOc1ccccc1NC(=O)c1ccc2ccccc2c1O` [8b]: for the setting “series B”, the logk is given as 1.3103 and the “πB (distributive parameter π calculated from logk)” value is 0.74.

As to `CCCCOc1ccc(NC(=O)c2ccc3ccccc3c2O)cc1` [13b], for the setting “series B”, the logk worked out at 1.1537 and the “πB (distributive parameter π calculated from logk)” value is 1.08.

For the compound `CCCOc1cccc(NC(=O)c2c(O)ccc3ccccc23)c1` [9c], for the setting “series C”, the logk came to 0.3209 and the “πC (distributive parameter π calculated from logk)” value is 0.65.
